Test [1] has as its target Troponin, cardiac muscle (Homo sapiens, UniProt P19429+P45379+P63316). Kind of test: Fluorescence-based biochemical high throughput dose response assay for activators of the calcium sensitivity of cardiac Regulated Thin Filaments (RTF). [Related pubchem assays (depositor defined):AID493008, AID493018, AID504382, AID504383]. The test is classed as protein-complex assay.

The target in test [2] is T1, Endoribonuclease toxin MazF (Escherichia coli K-12, UniProt P0AE70).
T1 sequence (P0AE70 whole entry): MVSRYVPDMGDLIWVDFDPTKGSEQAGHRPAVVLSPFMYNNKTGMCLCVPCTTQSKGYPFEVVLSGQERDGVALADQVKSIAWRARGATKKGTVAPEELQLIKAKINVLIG
The experiment in a line: MazF toxin RNase activators, dose response, biochemical, fluorescence, single-stranded RNA substrate, uHTS hits (AID 588481). The class given is functional.

Test [3] has as its target T1, Endoribonuclease toxin MazF. Kind of test: fluorescent RNA oligo signal without MazF, dose response, counter-screen for MazEF activator project, biochemical, fluorescence, single-stranded RNase substrate (AID 588502). The test is classed as functional. (The purpose of a counterscreen is to sort out artefacts and off-target activity.)
Test [4] concerns the target Potassium voltage-gated channel subfamily KQT member 2 (Rattus norvegicus, UniProt O88943). Kind of test: retigabine-insensitive KCNQ2 potentiators, concentration-response, dose response, cell-based, retigabine-insensitive compounds (AID 2654). The test is classed as functional.
Test [5] has as its target Tyrosine-protein phosphatase non-receptor type 12 (Homo sapiens, UniProt Q05209). The experiment in a line: SAR Selectivity Analysis of small molecule inhibitors of PEST using pCAP in a fluorescence assay. [Related pubchem assays (depositor defined):AID1779, AID1784, AID2135]. The test is classed as functional.
Test [6] concerns the target T2, Tyrosine-protein phosphatase non-receptor type 22 (Homo sapiens, UniProt Q9Y2R2).
T2 sequence (Q9Y2R2 whole entry): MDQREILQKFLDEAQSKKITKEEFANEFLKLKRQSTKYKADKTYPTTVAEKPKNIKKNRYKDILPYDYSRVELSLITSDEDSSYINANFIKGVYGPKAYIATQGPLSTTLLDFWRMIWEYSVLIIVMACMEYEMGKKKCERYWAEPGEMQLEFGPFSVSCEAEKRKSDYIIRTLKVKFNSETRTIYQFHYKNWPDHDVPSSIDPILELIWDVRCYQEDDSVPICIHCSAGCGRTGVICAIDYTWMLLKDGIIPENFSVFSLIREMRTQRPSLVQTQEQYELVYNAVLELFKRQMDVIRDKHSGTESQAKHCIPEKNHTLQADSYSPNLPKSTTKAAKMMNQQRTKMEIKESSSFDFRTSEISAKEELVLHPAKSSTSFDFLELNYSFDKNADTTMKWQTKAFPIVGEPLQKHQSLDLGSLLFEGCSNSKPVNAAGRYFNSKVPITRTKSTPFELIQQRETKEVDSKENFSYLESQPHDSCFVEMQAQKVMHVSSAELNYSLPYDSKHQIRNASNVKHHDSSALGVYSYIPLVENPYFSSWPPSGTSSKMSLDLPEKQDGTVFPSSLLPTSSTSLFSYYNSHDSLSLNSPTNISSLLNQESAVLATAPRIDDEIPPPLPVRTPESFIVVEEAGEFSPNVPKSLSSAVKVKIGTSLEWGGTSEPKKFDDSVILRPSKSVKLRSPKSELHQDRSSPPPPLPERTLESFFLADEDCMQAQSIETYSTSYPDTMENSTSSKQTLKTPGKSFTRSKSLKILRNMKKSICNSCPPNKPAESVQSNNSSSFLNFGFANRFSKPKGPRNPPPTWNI
The experiment in a line: SAR LYP1 Fluorescent Assay using OMFP substrate for In Vitro dose response studies - Set 3. [Related pubchem assays (depositor defined):AID1779, AID1784, AID2140, AID2686]. The class given is functional.

For test [7], the target named is T3, Tyrosine-protein phosphatase non-receptor type 7 (Homo sapiens, UniProt P35236).
T3 sequence (P35236 whole entry): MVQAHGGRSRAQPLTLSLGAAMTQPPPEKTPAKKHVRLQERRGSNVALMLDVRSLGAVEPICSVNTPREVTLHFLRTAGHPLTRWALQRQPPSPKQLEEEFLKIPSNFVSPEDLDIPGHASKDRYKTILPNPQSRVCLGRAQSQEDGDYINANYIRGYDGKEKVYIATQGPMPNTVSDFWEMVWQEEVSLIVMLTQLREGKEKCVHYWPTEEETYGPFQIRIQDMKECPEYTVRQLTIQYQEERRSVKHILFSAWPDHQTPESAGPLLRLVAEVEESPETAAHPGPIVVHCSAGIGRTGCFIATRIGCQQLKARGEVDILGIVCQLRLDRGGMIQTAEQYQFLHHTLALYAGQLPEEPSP
The experiment in a line: redox-dependent HePTP inhibition, mechanism study, biochemical, fluorescence (AID 2068). The test is classed as functional.

Test [8] deals with T3, Tyrosine-protein phosphatase non-receptor type 7. Kind of test: HePTP (PTPN7) phosphatase inhibitor potency, SAR follow-up, biochemical, set 2 (AID 449736). The class given is functional.
The target in test [9] is T2, Tyrosine-protein phosphatase non-receptor type 22. The experiment in a line: LYP (PTPN22) phosphatase inhibitor potency, SAR follow-up, biochemical, pCAP fluorogenic substrate, fluorescence, set 3 (AID 449727). The class given is functional.
For test [10], the target named is Dual specificity protein phosphatase 3 (Homo sapiens, UniProt P51452). Kind of test: SAR VHR1 Fluorescent Assay for In Vitro dose response studies Set 2. [Related pubchem assays (depositor defined):AID1654, AID1661, AID1878]. The class given is functional.
The target in test [11] is T4, Dual specificity protein phosphatase 6 (Rattus norvegicus, UniProt Q64346).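 Note: confirmatory in vitro dose-response testing of MKP-3 inhibition; recombinant His-tagged MKP-3 made in E. coli BL21 with OMFP substrate.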
T4 sequence (Q64346 whole entry): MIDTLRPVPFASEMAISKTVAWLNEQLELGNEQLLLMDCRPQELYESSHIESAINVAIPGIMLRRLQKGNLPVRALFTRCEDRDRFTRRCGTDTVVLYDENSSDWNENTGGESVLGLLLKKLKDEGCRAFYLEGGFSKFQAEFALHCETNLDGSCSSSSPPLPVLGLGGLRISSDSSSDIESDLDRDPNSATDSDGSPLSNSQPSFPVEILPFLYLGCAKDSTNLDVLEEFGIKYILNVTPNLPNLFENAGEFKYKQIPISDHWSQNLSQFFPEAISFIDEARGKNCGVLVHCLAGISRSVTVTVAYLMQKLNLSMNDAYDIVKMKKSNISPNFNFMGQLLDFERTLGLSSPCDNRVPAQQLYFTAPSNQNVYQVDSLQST
The class given is functional.

Test [12] deals with T5, Coagulation factor XII (Homo sapiens, UniProt P00748).
T5 sequence (P00748 whole entry): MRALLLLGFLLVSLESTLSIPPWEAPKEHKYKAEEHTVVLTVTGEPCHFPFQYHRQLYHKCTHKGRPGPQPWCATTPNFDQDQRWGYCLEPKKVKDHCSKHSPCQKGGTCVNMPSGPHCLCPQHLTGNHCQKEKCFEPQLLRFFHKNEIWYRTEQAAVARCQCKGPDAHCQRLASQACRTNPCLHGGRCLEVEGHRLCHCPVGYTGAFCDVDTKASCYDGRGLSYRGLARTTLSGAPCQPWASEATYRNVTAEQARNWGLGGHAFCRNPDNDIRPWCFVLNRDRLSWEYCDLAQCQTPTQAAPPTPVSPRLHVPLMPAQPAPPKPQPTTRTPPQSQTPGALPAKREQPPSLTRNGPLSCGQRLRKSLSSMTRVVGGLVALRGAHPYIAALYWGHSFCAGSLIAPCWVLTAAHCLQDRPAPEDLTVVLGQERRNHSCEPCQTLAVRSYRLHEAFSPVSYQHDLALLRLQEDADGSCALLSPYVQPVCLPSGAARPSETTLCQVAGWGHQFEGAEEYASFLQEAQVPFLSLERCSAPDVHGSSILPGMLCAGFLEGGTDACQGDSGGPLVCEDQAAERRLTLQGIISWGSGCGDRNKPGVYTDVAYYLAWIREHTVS
Kind of test: FXIIa inhibitor potency, concentration-response, biochemical (AID 716). The class given is functional.

Test [13] deals with HEK293. Kind of test: NOD1 signaling inhibitors, primary screen, cell-based, luminescence, uHTS (AID 1578). As to conditions: Homo sapiens. The class given is functional.
For test [14], the system named is HEK293. Kind of test: cells. The class given is functional, cell-based. As to conditions: Homo sapiens.
In test [15] the test system is HEK293. Kind of test: cells. The test is classed as functional, cell-based. As to conditions: Homo sapiens. This is another data set of the same source.
Test [16] has as its target Nucleotide-binding oligomerization domain-containing protein 2 (Homo sapiens, UniProt Q9HC29). The experiment in a line: NOD2 signaling inhibitors, cell-based, luminescence, uHTS, HEK293 (AID 1566). The class given is functional.
In test [17] the test system is HEK293. The experiment in a line: NOD2 signaling inhibitors in MDP-stimulated cells, cell-based, uHTS, luminescence (AID 2001). The class given is functional. As to conditions: Homo sapiens.
Test [18] relates to HEK293. Kind of test: cells. The test is classed as functional, cell-based. As to conditions: Homo sapiens. The source holds these as a separate data set.
In test [19] the target is Dual specificity tyrosine-phosphorylation-regulated kinase 1A (Rattus norvegicus, UniProt Q63470). The test is classed as biochemical, Homo sapiens.
The target in test [20] is Voltage-dependent T-type calcium channel subunit alpha-1H (Homo sapiens, UniProt O95180). Kind of test: Cav3.2 T-type channel inhibitors, cell-based, synthetic library set 1, calcium flux (AID 493022). The class given is functional. A general note: Calcium flux is commonly read through the fluorescence of an indicator in the cells.

Activity calls are given as the source filed them.

Broadly, the EC50 is the concentration that produces a half-maximal response. The IC50 is the point on the concentration scale where inhibition reaches its midpoint. As a reminder, the AC50 is the midpoint of the concentration-response curve, whichever way the signal moves.

With `O=[N+]([O-])c1ccc(NN=Cc2cccc3ccccc23)nc1`, the results for the EC50 in test [1], in test [2] and in test [3] were 26.6 µM (inactive), > 99 µM (inactive) and 45.4 µM (inactive), respectively.

As to `S=C(Nc1ccc(Nc2ccccc2)cc1)Nc1cccnc1`, the EC50 in test [4] is 11 µM (active).

In the case of `CCOc1cc(/C=C2/S/C(=N/c3ccc4ccccc4c3)NC2=O)cc(Cl)c1OCC(=O)O`, the IC50 is 4.76 µM (active) in test [5]; 15.6 µM (active) in [6]; 0.373 µM (active) in test [7]; 0.466 µM (active) in test [8]; 12.3 µM (active) in test [9]; 0.48 µM (active) in test [10]. Besides, the IC50 in test [11] is 26.5 µM (active).

As to `CCOC(=O)c1nnn(-c2nonc2N)c1CNc1ccc(C)c(Br)c1`, the IC50 in test [12] is > 50 µM (inactive).

Take `Clc1c(Cl)c(Cl)c2[nH]nnc2c1Cl`: the EC50 was 2.24 µM (active) in [13] and 3.2 µM (active) in [16]. In addition, the IC50 is 13.9 µM (active) in [14], > 20 µM (inactive) in test [15], 7.94 µM (active) in test [17] and > 20 µM (inactive) in [18]. For the same compound, the AC50 in test [19] was 5.99 µM (active).

Regarding `CC(Oc1ccccc1)C(=O)Nc1nnc(-c2ccc(F)c(F)c2)o1` (stereo not given), the EC50 in test [20] is 10 µM (active).

The record behind these values is ChEMBL document CHEMBL1201862, “PubChem BioAssay data set” (2004).
